The results in this text go back to the RepoRT retention time repository.

The nature of this series: Waters XBridge C18, 0.2 mL/min; A: water + 0.1% formic acid; B: methanol + 0.1% formic acid; gradient (min/%B) 0/10 4/50 17/95 25/95. Particulars: stereoisomer not certain.
As for `NC(=O)N1c2ccccc2CC(=O)c2ccccc21`, the LC retention time was 8 min.
In the case of `Nc1ccc(S(=O)(=O)Nc2ccccn2)cc1`, the LC retention time stood at 4.4 min.
On to `CCCC1CC(C(=O)NC(C(C)O)C2OC(SC)C(O)C(O)C2O)N(C)C1` (stereo not drawn), for which the LC retention time amounted to 4.7 min.
Regarding `CNC(=C[N+](=O)[O-])NCCSCc1ccc(CN(C)C)o1`, the LC retention time turned out to be 5.6 min.
Take `CC(C)NCC(O)COc1ccc(CC(=O)O)cc1` (stereo not drawn): the LC retention time amounted to 4.7 min.
For the compound `O=C(O)c1ccc(-c2ccccc2-c2nn[nH]n2)cc1`, the LC retention time came to 7.9 min.
On to `Cc1cc(C)nc(NS(=O)(=O)c2ccc(N)cc2)n1`, for which the LC retention time was found to be 5.2 min.
For `CCN(CC)C(=O)c1cccc(C)c1`, the LC retention time is 10 min.
As to `CC(C)NCC(O)COc1ccc(COCCOC(C)C)cc1` (stereo not drawn), the LC retention time turned out to be 6.7 min.
As for `COc1ccc(CN2CCNCC2)c(OC)c1OC`, the LC retention time came to 3.5 min.
Turning to `COC=C(C(=O)OC)c1ccccc1Oc1cc(Oc2ccccc2C#N)ncn1`, the LC retention time stood at 11 min.
For `CC(C)NCC(O)COc1cccc2ccccc12` (stereo not drawn), the LC retention time was 7.2 min.
`Cc1cc(=O)n(-c2ccccc2)n1C`: the LC retention time came to 5.9 min.
As to `CCC1OC(=O)C(C)C(OC2CC(C)(OC)C(O)C(C)O2)C(C)C(OC2OC(C)CC(N(C)C)C2O)C(C)(O)CC(C)C(=NOCOCCOC)C(C)C(O)C1(C)O` (stereo not drawn), the LC retention time stood at 10 min.
For `CCN1CCCC1CNC(=O)c1cc(S(=O)(=O)CC)c(N)cc1OC` (stereo not drawn), the LC retention time is 4.6 min.
As to `CC(C)(C(=O)O)c1ccc(C(O)CCCN2CCC(C(O)(c3ccccc3)c3ccccc3)CC2)cc1` (stereo not drawn), the LC retention time was found to be 8.6 min.
With `CN(C(=O)COc1nc2ccccc2s1)c1ccccc1`, the LC retention time was 13 min.
`CCC(C)OC(=O)N1CCCCC1CCO` (stereo not drawn): the LC retention time is 9.9 min.
On to `Cc1cccc2sc3nncn3c12`, for which the LC retention time stood at 7.3 min.
Regarding `CNC(=C[N+](=O)[O-])NCCS(=O)Cc1ccc(CN(C)C)o1` (stereo not drawn), the LC retention time was found to be 1.2 min.
With `Cc1cc(NS(=O)(=O)c2ccc(N)cc2)no1` the figure was 5.7 min; with `Cc1cccc(Nc2ccccc2C(=O)O)c1C`, 16 min; with `CN=C(NC#N)NCCSCc1nc[nH]c1C`, 3.6 min.
With `O=P(c1ccccc1)(c1ccccc1)c1ccccc1` the figure was 11 min; with `CC(C)OP(=O)(OC(C)C)SCc1ccccc1`, 14 min.
With `CCCCC1=NC2(CCCC2)C(=O)N1Cc1ccc(-c2ccccc2-c2nn[nH]n2)cc1` the figure was 11 min; with `COC(=O)Nc1nc2ccccc2[nH]1`, 4.7 min.
For `NC(=O)N1c2ccccc2C=Cc2ccccc21`, the LC retention time came out at 9.3 min.
`COc1cccc(C2(O)CCCCC2CN(C)C)c1` (stereo not drawn): the LC retention time stood at 5.7 min.
`COc1ccc2cc(C(C)C(=O)O)ccc2c1` (stereo not drawn): the LC retention time was determined as 12 min.
With `CN(C)C(=N)N=C(N)N`, the LC retention time was found to be 1.2 min.
As to `CN(C)CCOC(c1ccccc1)c1ccccc1`, the LC retention time stood at 7.4 min.
Turning to `CCCCC(=O)N(Cc1ccc(-c2ccccc2-c2nn[nH]n2)cc1)C(C(=O)O)C(C)C` (stereo not drawn), the LC retention time amounted to 12 min.
The same measure for `CC(C)OC(=O)C(C(=O)OC(C)C)=C1SCCS1`: 13 min; for `CC(C)NCC(O)COc1ccc(CC(N)=O)cc1` (stereo not drawn): 3.5 min; for `COc1cc(Cc2cnc(N)nc2N)cc(OC)c1OC`: 4.7 min.
With `CC(C)N1C(=O)c2ccccc2NS1(=O)=O` the figure was 8.9 min; with `c1ccc2n[nH]nc2c1`, 5.8 min.
With `CCN(CC)CC(=O)Nc1c(C)cccc1C`, the LC retention time came to 5.2 min.
Consider `Cc1cccc2n[nH]nc12`, for which the LC retention time is 7.2 min.
With `COCC(=O)N(c1c(C)cccc1C)C(C)C(=O)OC` (stereo not drawn) the figure was 10 min; with `Nc1ccc(S(=O)(=O)Nc2nccs2)cc1`, 4.2 min; with `COc1ccc(C(CN(C)C)C2(O)CCCCC2)cc1` (stereo not drawn), 6.9 min.
